Measured values: patent US6825232B2, “Use of hydroxyeicosatetraenoic acid compounds to treat ophthalmic inflammatory disorders” (Alcon, Inc., priority 2002, dated 2004)
Marks after values point to notes of the source that are not given here.

Legend:
IL-8 = conditions: 1 μM to 0.1 nM; human bone marrow stromal cells; cited from earlier work
IL-6 [1] = experiment: IL-6 release from IL-1β-stimulated primary human corneal fibroblast cells (ELISA); type: cell-based; conditions: for % Inhibition of IL-6 (pg/μg dsDNA): 30 min pretreatment, 10 ng/ml IL-1β for 3 hours, normalized to dsDNA
Procedure: Primary human corneal fibroblast cells were obtained from one donor and grown to confluence in Ham's F-10 medium. Fibroblasts were transferred to serum-free media and were pretreated for 30 minutes with various concentrations of 15(S)-HETE. The cells were then stimulated with 10 ng/ml IL-1β for 3 hours and aliquots of the supernatants were assayed for IL-6 by ELISA. Data were normalized by the amount of double stranded DNA (dsDNA) extracted from the cells.

IL-6 [2] = conditions: bone marrow stromal cells; cited from earlier work

CCCCC[C@H](O)/C=C/C=C\C/C=C\C/C=C\CCCC(=O)O [15(S)-HETE, 15-Hydroxyeicosatetraenoic acid]
effect on the spontaneous and serum-induced production of IL-8 (IL-8): no effect | % Inhibition of IL-6 (pg/μg dsDNA) (IL-6 [1]; 15(S)-HETE 0.5 μg): 53.1% | % Inhibition of IL-6 (pg/μg dsDNA) (IL-6 [1]; 15(S)-HETE 1 μg): 67.9* % | % Inhibition of IL-6 (pg/μg dsDNA) (IL-6 [1]; 15(S)-HETE 2 μg): 88.6** % | % Inhibition of IL-6 (pg/μg dsDNA) (IL-6 [1]; 15(S)-HETE 3 μg): 90.4** % | IC50 (IL-6 [1]; primary human corneal fibroblast cells, IL-1β stimulated, read-out: IC50 for IL-6 inhibition): < 500 nM | effect on the spontaneous, serum- and cytokine-induced IL-6 synthesis (IL-6 [2]): no effect
